In PubChem BioAssay AID493130 (Broad Institute, 2011):
Inconclusive results are not listed. The source made the active and inactive calls.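 How the source made its calls: active means signal-lowering compounds whose fitted half-maximal concentration is at most ten times their highest tested dose; inconclusive means flat fit between -30 and -70%, or poor fit; inactive means flat within 30%, signal rising, or potency beyond limit.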

The compounds below were run against POS-1 (Caenorhabditis elegans) binding to mex-3 RNA (assay: C. elegans POS-1 RNA interaction disruptors – biochemical, fluorescence polarization, cherry-picked samples, set 2, counter-screen for MEX-5 RNA-binding inhibitor project, dose response (AID 493130;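 further: POS-1 as maltose binding protein fusion made in E. coli with FITC RNA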)). Conditions: POS-1/mex-3 RNA fluorescence polarization, 1 h.

Row | Compound | AC50
1 | CN1CCN(c2ccc([N+](=O)[O-])c3no[n+]([O-])c23)CC1 | 3.3 µM
2 | CN(C)c1ccc2nc3c(=O)[nH]c(=O)nc-3n(CC(O)C(O)C(O)CO)c2c1 (configuration not stated) | 9.63 µM
3 | O=C(NNC(=O)c1ccccc1O)c1ccc(S(=O)(=O)Nc2ccccc2)cc1 | 4.17 µM
4 | Nc1ccc(N(CCO)CCO)cc1 | 6.49 µM
5 | COc1ccc(/C(O)=C/c2nc3ccccc3n(-c3ccccc3)c2=O)cc1 | 3.23 µM
6 | CCOC(=O)C1=C(CSc2nc3c(cc2C#N)CN(C)CC3)OC(N)=C(C#N)C1c1ccncc1 (configuration not stated) | 7.33 µM
7 | O=c1[nH]n2c(=O)c3c([nH]c2c1N=Nc1ccccc1)CCC3 | 0.677 µM
8 | Cc1[nH][nH]c(=O)c1C(c1ccc(O)c([N+](=O)[O-])c1)c1c(C)[nH][nH]c1=O | 7.84 µM
9 | CCCC1C2CN(C(C)C)CC=C2C(C#N)=C(N)C1(C#N)C#N (configuration not stated) | 1.81 µM
10 | COc1ccc(C2C=C(c3ccc(Br)cc3)Nc3nc(N4C(=O)CCC4=O)nn32)cc1 (configuration not stated) | 8.26 µM
11 | Cn1c(=O)c(Nc2ccc(Cl)cc2)c2c3c(cccc31)C(=O)c1ccccc1-2 | 0.907 µM
12 | CNC(=O)/C(C#N)=C/c1ccc(-c2nc3ccccc3s2)o1 | 3.91 µM
13 | CC1CCN(Cc2c(O)ccc3c2O/C(=C\c2ccco2)C3=O)CC1 | 3.53 µM
14 | Cn1c(=O)c2[nH]c(-c3ccccc3)c(O)c2n(C)c1=O | 2.27 µM

Same assay, conditions: POS-1/mex-3 RNA fluorescence polarization, 1 h; at 10 µM (top of the series)

Row | Compound | activity change, negative = inhibition
15 | O=C(O)CCCN1C(=O)/C(=C\c2ccc(-c3nc4ccccc4s3)o2)SC1=S | inactive
16 | Cc1nnc(-c2cccc(Br)c2)c2cn(-c3cccc(Br)c3)nc12 | inactive
17 | C=CCn1c(O)c(N=NC(=O)CNC(=O)/C=C/c2ccco2)c2ccccc21 | inactive
18 | CCN(CC)c1ccc(/C=N/NC(=O)c2cccc(S(=O)(=O)Nc3ccccc3OC)c2)c(O)c1 | inactive
19 | Cc1c(O)ccc(-c2[nH]ncc2-c2nc3ccccc3s2)c1O | inactive
20 | O=C(O)CC1S/C(=N/N=C/c2ccc(-c3ccccc3[N+](=O)[O-])o2)NC1=O (configuration not stated) | inactive
21 | Cn1c(=O)c2c(nc(NN=C3CCCCC3)n2C)n(C)c1=O | inactive
22 | Cc1ccc2c(c1)-c1ccccc1S(=O)(=O)N2 | inactive
23 | CCOC(=O)N1CCN(c2nc3ccccc3nc2C(C#N)C(=O)NCCc2ccccc2)CC1 (configuration not stated) | inactive
24 | Cc1ccc(C(=O)N/C(=C\c2ccc(-c3ccc([N+](=O)[O-])cc3)o2)C(=O)NC2CCS(=O)(=O)C2)cc1 (configuration not stated) | inactive
25 | O=[As](O)(O)c1ccc(N=Nc2ccc(O)cc2)cc1 | inactive
26 | COC(=O)COc1ccc(C2Nc3c(Cl)ccc(C(=O)O)c3C3C=CCC32)cc1 (configuration not stated) | inactive
27 | Cc1ccc(-c2ccc(/C=N/N=C3/NC(=O)C(CC(=O)O)S3)o2)c([N+](=O)[O-])c1 (configuration not stated) | inactive
28 | Cc1c(CN2CCCC(C)C2)c(O)n(CCO)c(=O)c1C#N (configuration not stated) | inactive
29 | COC(=O)c1ccc(CC(=O)c2c(C)cc(O)cc2O)o1 | inactive
30 | Cn1cc(CNC(=O)C2c3ccccc3Oc3ccccc32)cn1 | inactive
31 | O=C(O)c1cccc(-n2cccc2/C=C/[N+](=O)[O-])c1 | inactive

Row | Compound | activity change, negative = inhibition
32 | Cc1c(N=Cc2cc3c(cc2[N+](=O)[O-])OCO3)cccc1[N+](=O)[O-] | inactive
33 | COC(=O)C1CSc2[nH]c(=O)sc2C1c1ccc(O)c(OC)c1 (configuration not stated) | inactive
34 | Cn1c(O)c(C2=c3ccccc3=NC2=O)[nH]c1=S | inactive
35 | O=C(Nc1ccc(S(=O)(=O)Nc2nccs2)cc1)c1ccc(N2C(=O)c3ccccc3C2=O)cc1 | inactive
36 | Cc1sc2ncnc(N/N=C/c3ccccc3O)c2c1C | inactive
37 | CNC(=O)/C(C#N)=C/c1ccc(-c2ccc(Cl)cc2)o1 | inactive
38 | CCN(CC)CCOc1ccc2c(c1)C(=NNC(=O)c1ccccn1)c1cc(OCCN(CC)CC)ccc1-2 | inactive
39 | COc1cc(C=C2C(=O)c3ccccc3C2=O)cc(OC)c1OC | inactive
40 | CC1=CC2=NC(=O)/C(=C\c3cn(C)c4ccccc34)C(=N)N2O1 | inactive
41 | CC1=CC(=C2C(=O)NC(=S)NC2=O)C=C(C(F)(F)F)N1Cc1ccccc1 | inactive
42 | O=C(O)CCCC(=O)NNc1nc(-c2ccccc2)c2cc(Cl)ccc2n1 | inactive
43 | COc1ccc(C(=O)C/C(=C\C(=O)c2ccc(C)cc2)c2ccccc2)cc1 | inactive
44 | O=Cc1ccc2ccc3cccnc3c2n1 | inactive
45 | COc1ccc(/C=N/Nc2nc(=O)[nH]nc2C)cc1[N+](=O)[O-] | inactive
46 | COC(=O)CCC(=O)OC1(C)C(=O)C2=CN(Cc3ccccc3)C(c3ccc(OC)cc3)=CC2=C(Br)C1=O (configuration not stated) | inactive
47 | O=c1cc(-c2ccccc2Cl)oc2c(NS(=O)(=O)c3ccccc3OC(F)(F)F)ccc(O)c12 | inactive
